This is an account of results in patent US6221865A, “Inhibitors of protein isoprenyl transferases” (priority 1998, dated 2001).

Where a name gives a salt, the structure may show the parent alone.

One test deals with T1, protein farnesyltransferase (Rattus norvegicus, UniProt Q02293+Q04631).
T1 construct: The enzyme is purified according to Reiss, Y., et al., Cell, 62: 81-88 (1990), utilizing steps one through three; from tissue; host or cells: rat brain
T1 sequence (Q02293 whole entry, one chain of several): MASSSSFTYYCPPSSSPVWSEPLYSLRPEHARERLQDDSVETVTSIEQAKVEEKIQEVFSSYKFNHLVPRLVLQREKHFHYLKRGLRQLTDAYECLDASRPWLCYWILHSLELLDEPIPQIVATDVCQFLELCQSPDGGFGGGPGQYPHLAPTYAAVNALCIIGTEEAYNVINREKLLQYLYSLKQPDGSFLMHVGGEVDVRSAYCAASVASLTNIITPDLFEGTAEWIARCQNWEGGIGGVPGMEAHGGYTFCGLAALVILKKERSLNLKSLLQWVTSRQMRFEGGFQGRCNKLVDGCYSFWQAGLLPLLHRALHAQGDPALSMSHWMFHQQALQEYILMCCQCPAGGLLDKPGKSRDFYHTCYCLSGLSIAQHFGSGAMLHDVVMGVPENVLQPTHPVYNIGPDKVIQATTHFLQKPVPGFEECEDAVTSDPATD
The test can be described thus: Inhibition of farnesyltransferase (scintillation proximity assay, rat brain enzyme, biotin-K Ras B fragment substrate). Particulars: 1 × 10^-5 M (Table 1). In kind it is biochemical. An excerpt:
The ability of the compounds of the invention to inhibit protein farnesyltransferase or protein geranylgeranyltransferase can be measured according to the method of Moores, et al., J. Biol. Chem. 266: 14603 (1991) or the method of Vogt, et al., J. Biol. Chem. 270:660-664 (1995). In addition, procedures for determination of the inhibition of farnesylation of the oncogene protein Ras are described by Goldstein, et al., J. Biol. Chem., 266:15575-15578 (1991) and by Singh in U.S. Pat. No. 5,245,061.
In addition, in vitro inhibition of protein farnesyltransferase may be measured by the following procedure. Rat brain protein farnesyltransferase activity is measured using an Amersham Life Science commercial scintillation proximity assay kit and substituting a biotin-K Ras B fragment (biotin-[…]Ble-Met-CO2 H), […] final concentration, for the biotin-lamin substrate provided by Amersham. The enzyme is purified according to Reiss, Y., et al., Cell, 62: 81-88 (1990), utilizing steps one through three.
The % inhibition of protein farnesyltransferase was determined for representative compounds of the invention.
Regarding `COc1cc(Cl)ccc1C(=O)Nc1ccc(C(=O)N[C@@H](CCSC)C(=O)O)c(-c2ccccc2)c1` [Example 753], the “% inhibition of farnesyltransferase at 1 × 10^-5 M” value (from here on “% inhibition … at 1 × 10^-5 M”) is reported as 55%. Same read-out and setting: the value for `CCn1cc(NCc2ccc(C(=O)N[C@@H](CCSC)C(=O)O)c(-c3ccccc3)c2)c(=O)n1CC` [Example 364] was 69%; that for `CSCC[C@H](NC(=O)c1ccc(CNc2cc[nH]n2)cc1-c1ccccc1)C(=O)O` [Example 370] was 86%; that for `CSCC[C@H](NC(=O)c1ccc(CNCCCCc2ccccc2)cc1-c1ccccc1)C(=O)O` [Example 718] was 40%. With `CCN(Cc1ccc(C(=O)N[C@@H](CCSC)C(=O)O)c(-c2ccccc2)c1)Cc1cc([N+](=O)[O-])ccc1O` [Example 711], the “% inhibition … at 1 × 10^-5 M” value was determined as 46%.

On to `CSCC[C@H](NC(=O)c1ccc(CNc2cc(C)cc(C)c2)cc1-c1ccccc1)C(=O)O` [Example 709], for which the “% inhibition … at 1 × 10^-5 M” value is 55%. For the molecule `CSCC[C@H](NC(=O)c1ccc(CNc2ccc3c(c2)Cc2ccccc2-3)cc1-c1ccccc1)C(=O)O` [Example 706], the “% inhibition … at 1 × 10^-5 M” value is 53%.

Staying with this test, now noted: 1 × 10^-6 M (Table 2).
`CSCC[C@H](NC(=O)c1ccc(COCc2ccc(-c3ccc(F)cc3)o2)cc1-c1cccc2ccccc12)C(=O)[O-].[Li+]` [Example 868]: the “% inhibition of farnesyltransferase at 1 × 10^-6 M” value (from here on “% inhibition … at 1 × 10^-6 M”) is listed as 89%. The same measure, in the same setting: the value for `CSCC[C@H](NC(=O)c1ccc(CN(Cc2ccccc2)Cc2ccccc2)cc1-c1ccccc1C)C(=O)O` [Example 512] was 94%.

As to `CSCC[C@H](NC(=O)c1ccc(CN(Cc2ccccc2)c2ccccc2Cl)cc1-c1ccccc1C)C(=O)O` [Example 846], the “% inhibition … at 1 × 10^-6 M” value is reported as 85%. The same measure, in the same setting: the value for `CSCC[C@H](NC(=O)c1ccc(CSC2CCCCC2)cc1-c1ccccc1C)C(=O)[O-].[Li+]` [Example 550] was 96%; that for `CSCC[C@H](NC(=O)c1ccc(Sc2ccc3ccccc3c2)cc1-c1ccccc1C)C(=O)O` [Example 497] was 94%; that for `COC(=O)[C@H](CCSC)NC(=O)c1ccc(NC(=O)[C@@H]2CSCN2)cc1-c1ccccc1.Cl` [Example 164] was 92%.

Regarding `CSCC[C@H](NC(=O)c1ccc(OCCCc2ccccc2)cc1-c1ccccc1C)C(=O)[O-].[Li+]` [Example 879], the “% inhibition … at 1 × 10^-6 M” value came out at 95%. Regarding `CSCC[C@H](NC(=O)c1ccc(COCc2cccs2)cc1-c1ccccc1C)C(=O)[O-].[Li+]` [Example 273], the “% inhibition … at 1 × 10^-6 M” value is on record as 96%. Same read-out and setting: as for `CSCC[C@H](NC(=O)c1ccc(OCCCOc2ccccc2)cc1-c1ccccc1C)C(=O)O` [Example 566], the figure is 98%. For `CCSC[C@H](CC1CCCCC1)NCc1ccc(C(=O)N(C)[C@@H](CCSC)C(=O)O)c(-c2ccccc2C)c1` [Example 765], the “% inhibition … at 1 × 10^-6 M” value is 76%.

Still in this test, the particulars now being: 1 × 10^-7 M (Table 3).
For the molecule `CSCC[C@H](NC(=O)c1ccc(CSc2nc3ccccc3[nH]2)cc1-c1ccccc1C)C(=O)O` [Example 732], the “% inhibition of farnesyltransferase at 1 × 10^-7 M” value (“% inhibition … at 1 × 10^-7 M” below) is given as 84%. For the molecule `CCSC[C@H](CC1CCCCC1)N(Cc1ccc(C(=O)N[C@@H](CCSC)C(=O)O)c(-c2ccccc2C)c1)C(=O)OC(C)(C)C` [Example 948], the “% inhibition … at 1 × 10^-7 M” value worked out at 75%. Same read-out and setting: the value for `CCS(=O)(=O)C[C@H](CC1CCCCC1)NCc1ccc(C(=O)N[C@@H](CCS(C)(=O)=O)C(=O)O)c(-c2ccccc2C)c1` [Example 621] was 98%; that for `CSCC[C@H](NC(=O)c1ccc(COCc2ccc(Cl)cc2)cc1-c1ccccc1C)C(=O)[O-].[Li+]` [Example 933] was 91%; that for “N-[4-(2-fluoren-4-ylethyl)-2-(2-methylphenyl)benzoyl]methionine lithium salt [Example 464]” was 86%.

`CSCC[C@H](NC(=O)c1ccc(COCc2ccccc2)cc1-c1ccccc1C)C(=O)[O-].[Li+]` [Example 571]: the “% inhibition … at 1 × 10^-7 M” value is reported as 88%.

In the case of `CSCC[C@@H](C(=O)[O-])N(C)C(=O)c1ccc(COCCCC2CCCCC2)cc1-c1ccccc1C.[Li+]` [Example 597], the “% inhibition … at 1 × 10^-7 M” value was 75%. On the same count and under the same terms, as for `CSCC[C@H](NC(=O)c1ccc(NC[C@@H]2C[C@H](S)CN2)cc1-c1ccccc1)C(=O)O` [Example 959], the figure is more than 50%. Take `CSCC[C@H](NC(=O)c1ccc(CN(Cc2ccc(Cl)cc2)c2ccccc2)cc1-c1ccccc1C)C(=O)O` [Example 781]: the “% inhibition … at 1 × 10^-7 M” value is recorded as 91%. On the same count and under the same terms, the value for `CSCC[C@H](NC(=O)c1ccc(COCc2cc3ccccc3o2)cc1-c1ccccc1C)C(=O)[O-].[Li+]` [Example 533] was 91%; that for `CSCC[C@H](NC(=O)c1ccc(CSC2=NCCS2)cc1-c1ccccc1C)C(=O)O` [Example 730] was 96%.

The test is the same for the next values; noted with them: 1 × 10^-8 M (Table 4).
`COc1cccc(CN(Cc2ccc(C(=O)N[C@@H](CCSC)C(=O)O)c(-c3ccccc3C)c2)c2ccccc2)c1` [Example 779]: the “% inhibition of farnesyltransferase at 1 × 10^-8 M” value is 70%. The same measure, in the same setting: the value for `CCSC[C@H](CC1CCCCC1)N(C=O)Cc1ccc(C(=O)N[C@@H](CCSC)C(=O)O)c(-c2ccccc2C)c1` [Example 946] was 52%; that for `CCSC[C@H](CC1CCCCC1)OCc1ccc(C(=O)N[C@@H](CCSC)C(=O)O)c(-c2ccccc2C)c1` [Example 606] was 93%; that for `CC[C@H](CC1CCCCC1)NCc1ccc(C(=O)N[C@@H](CCSC)C(=O)O)c(-c2ccccc2C)c1` [Example 614] was 92%. Take `CSCC[C@H](NC(=O)c1ccc(COCc2cnc(-c3cccc(Cl)c3)s2)cc1-c1ccccc1C)C(=O)[O-].[Li+]` [Example 899]: the “% inhibition of farnesyltransferase at 1 × 10^-8 M” value was 88%.

The test is the same for the next values; noted with them: Table 6, ** = 0.01 μM (footnote); title prints 0.01 mM.
In the case of `CCSCC(CC1CCCCC1)NCc1cc(-c2ccccc2C)c(C(=O)N[C@@H](CCSC)C(=O)O)cc1F` (some centres unmarked) [Example 1134], the “% inhibition at 0.01 μM (**)” value is listed as 95%.

The test is the same for the next values; noted with them: read-out: % inhibition at 0.01 μM (**); Table 6, ** = 0.01 μM (footnote); title prints 0.01 mM.
Regarding `CSCC[C@H](NC(=O)c1ccc(CP(=O)(CC2CCCCC2)CC2CCCCC2)cc1-c1ccccc1C)C(=O)O` [Example 1214, N-[4-(Di(cylohexylmethyl)(oxophosphinyl)methyl)-2-(2-methylphenyl)benzoyl]methionine], the inhibition at 0.01 µM is 92%.

Still in this test, the particulars now being: read-out: % inhibition at 0.1 μM (*); Table 6, * = 0.1 μM (footnote); title prints 0.1 mM.
For `COC1CC(COCC2CCCCC2)N(Cc2ccc(C(=O)NC(CCSC)C(=O)O)c(-c3ccccc3C)c2)C1` [Example 1123, N-[4-(2(S)-cyclohexylmethoxymethyl-4(R-methoxypyrrolidin-1-ylmethyl)-2-(2-methylphenyl)benzoyl]methionine], the inhibition at 0.1 µM came out at 90%.

Still in this test, the particulars now being: read-out: % inhibition of farnesyltransferase at 1 × 10^-6 M; 1 × 10^-6 M (Table 2).
Consider `CSCC[C@H](NC(=O)c1ccc(CCCCC2CCCCC2)cc1-c1ccccc1C)C(=O)O` [Example 478, N-[4-(4-cyclohexylbutyl)-2-(2-methyphenyl)benzoyl]methionine sodium salt], for which the inhibition at 1 µM is 98%.

As to `CSCC[C@H](NC(=O)c1ccc(CN(C2CC2)C2(Cc3ccccc3)CCC2)cc1-c1ccccc1C)C(=O)O` [Example 329], the inhibition at 1 µM is 98%.

`CSCC[C@H](NC(=O)c1ccc(CN(C(C)C)C2(Cc3ccccc3)CCCC2)cc1-c1ccccc1C)C(=O)O` [Example 343]: the inhibition at 1 µM came to 72%. Still for that read-out and setting: the value for `CSCC[C@H](NC(=O)c1ccc(CN(C2CC2)C(C)(C)Cc2ccccc2)cc1-c1ccccc1C)C(=O)O` [Example 315] was 93%; that for `CSCC[C@H](NC(=O)c1ccc(C=Cc2ccccc2Oc2ccccc2)cc1-c1ccccc1C)C(=O)O` [Example 453, N-[4-(2-(2-phenoxyphenyl)ethen-1-yl)-2-(2-methylphenyl)benzoyl]methionine lithium salt] was 90%.

Staying with this test, now noted: read-out: % inhibition of farnesyltransferase at 1 × 10^-7 M; 1 × 10^-7 M (Table 3).
Consider `CSCC[C@H](NC(=O)c1ccc(CCc2ccccc2Oc2ccccc2)cc1-c1ccccc1C)C(=O)O` [Example 455, N-[4-(2-(2-phenoxyphenyl)ethyl)-2-(2-methylphenyl)benzoyl]methionine lithium salt], for which the inhibition at 0.1 µM was found to be 83%.

Still in this test, the particulars now being: read-out: % inhibition of farnesyltransferase at 1 × 10^-8 M; 1 × 10^-8 M (Table 4).
On to `CSCC[C@H](NC(=O)c1ccc(CCc2ccc(Oc3ccc(Cl)cc3)cc2)cc1-c1ccccc1C)C(=O)O` [Example 860, N-[4-(2-(4-(4-chlorophenoxy)phenyl)ethyl)-2-(2-methylphenyl)benzoyl]methionine], for which the inhibition at 0.01 µM worked out at 85%. `CSCC[C@H](NC(=O)c1ccc(CN2CCC[C@H]2COCC2CCCCC2)cc1-c1ccccc1C)C(=O)O` [Example 992, N-[4-(2-cyclohexylmethoxymethylpyrrolidin-1-ylmethyl)-2-(2-methylphenyl)benzoyl]methionine]: the inhibition at 0.01 µM was found to be 93%.
